Consider three molecules from patent publication US6380198B1 (Laboratoire Medidom S.A., priority 1997, dated 2002).

Test [1] deals with T1, σ-1 receptors (Oryctolagus cuniculus, UniProt G1SD54).
T1 construct: cell membranes obtained from the irido-ciliary body complex; from tissue; host or cells: rabbit irido-ciliary body, P2 membrane fraction
Briefly: [3H](+)-pentazocine receptor binding and competitive binding on irido-ciliary body membranes. Details: species or system rabbit (New Zealand albino). As to conditions: 300 μg membrane protein, 37° C., 150 minutes. The text has this:
In order to identify the presence of a receptor sites in the eye the technique of “receptor binding” has been exploited. The latter has been carried out on cell membranes obtained from the irido-ciliary body complex. The irido-ciliary body complex had been explanted, after sacrifice, from male albino rabbits of the New Zealand strain. The tissue was homogenised in buffer and a fraction rich in cell membrane proteins was isolated, obtained by centrifugation. […] Aliquots of the said fraction of the homogenate containing 300 μg of total proteins were incubated with scalar amounts of [^3H](+)-pentazocine (which is used, for experimental purposes only, as a a ligand). The reaction was carried out at 37° C. for 150 minutes and then, after filtering, the radioactivity left on the filters was measured by liquid scintillation.

Test [2] addresses T1, σ-1 receptors. Briefly: Inhibition of 3H(+)-N-allyl-nor-methazocine binding to irido-ciliary body membranes. On the set-up: species or system rabbit (New Zealand albino). As to conditions: rabbit irido-ciliary body P2 membranes, 300 μg protein, 37° C., 150 minutes, duplicate. The protocol: The receptor binding technique was carried out on cell membranes obtained from the irido-ciliary body complex explanted, after sacrifice, from male albino rabbits of the New Zealand strain (Charles River Italiana, of Calco (CO)). The tissue was homogenised in buffer and the P2, fraction, rich in cell membrane proteins, was isolated. […] The La total protein concentration was determined with the Lowry method.
The non specific binding was evaluated in presence of haloperidol.
All tests were carried out in duplicate. The reaction was maintained at 37° C. for 150 minutes, followed by filtration on WhatmannGF/B filters. The radioactivity left on the filters was measured by liquid scintillation spectrometry.

In test [3] the test system is intraocular pressure of rabbits showing normal baseline intraocular pressure. Briefly: Intraocular pressure in rabbits with normal intraocular pressure after topical instillation. It counts as in vivo, rabbit (Vienna Blue, pigmented). As to conditions: Table 2, 50 μl eye-drops: 0.050% flunarizine, 0.5% timolol, or flunarizine/beta-blocker combinations.
Method: The effects of the agent of the invention on the intraocular pressure of rabbits showing normal baseline intraocular pressure were evaluated in comparison with the action of a placebo, and with that of various other calcium channel blocking agents. Female pigmented rabbits of the Vienna Blue strain were used (supplied by Charles River Italiana, of Calco (CO)). The age of the animals at the time of starting the experimentation was 9 weeks, and their weight was 2.0-2.5 kg.
The choice of a species with pigmented iris is due to the fact that the latter represents a reliable model for the evaluation of possible modifications of the intraocular pressure caused by the products under test. The strain chosen is genetically defined, so as to limit to a minimum the variability of the biological characteristics between one animal and the other.
The animals were kept in rooms maintained under constant and controlled conditions of temperature and humidity, illuminated for 12 hours a day with artificial light and with continuous renovation of the air. The feed consisted of a standard diet having a constant and known composition, and both feed and water were available ad libitum during the whole period of the test. The rabbits were stabled for 21 days before starting the test, so as to allow a sufficient acclimatation and to suitably evaluate the health conditions of the rabbits. Each experimental group consisted of 4 animals, which were allotted to the treatment groups in a randomised way.
Each different group of animals received, by instillation in the right conjunctival fornix, 50 μl of the following products:
The weight concentrations of the various agents under test are chosen so as to correspond to the same molar concentration.
The pressure in the treated eye was measured by flattening tonometer (TonopenXL®, Mentor), 15 minutes before the instillation of the eyerops (time 0) and then 30, 60, 90, 120, 180 and 240 minutes after. As a local anaesthetic, 5 minutes before carrying out each measurement 25 μl of a commercial ophthalmic solution containing 0.4% oxybuprocaine hydrochloride (Novesine®, Sandoz) was instilled. To carry out the measurement the rabbits were placed in a suitably designed cage, that prevents any sudden movement of the animal under test.
For each animal and at each of the times listed above the average of three subsequent measurements was calculated and recorded, each one said measurements being made after 1 minute from the previous one. The intraocular pressure values at the various times were compared with the values obtained before the treatment, by means of the Student's “t” test. The comparisons between different groups were made by processing the data by the variance analysis (ANOVA) and, where possible, by the Student's “t” test for the comparison of two different experimental groups. Values of p<0.05 were considered to be statistically significant.
Test [4] deals with intraocular pressure of rabbits with ocular hypertension. Briefly: Intraocular pressure in rabbits with ocular hypertension induced by α-chymotrypsin. Type of test: in vivo, rabbit (Vienna Blue, pigmented). As to conditions: Table 5, hypertensive rabbits, 50 μl eye-drops: 0.050% flunarizine, 0.5% timolol, or flunarizine/beta-blocker combinations.
Method: Rabbits of the same type as those described in the previous section were used for the following tests.
In the rabbit, the injection of this enzyme in the posterior chamber causes, after one month from the administration, an effect of ocular hypertension.
At the end of the quarantine period the rabbits were anaesthetised by intramuscular administration of ketamine hydrochloride and xylazine hydrochloride (RBI). The right eye was gently pushed outwardly after instilling 25 μl of Novesine® eye-drops, containing oxybuprocaine as an anaesthetic; then, a sterile solution of σ-chymotrypsin (SIGMA, Milan; 150 units in 100 μl of physiologic sterile solution) was injected in the posterior chamber of the right eye by means of a 30G sterile needle. After the administration of the enzyme, the eye was thoroughly washed with physiologic sterile solution in order to remove any traces of α-chymotrypsin which could damage the ocular tissues. Then, 2 drops of a commercial ophthalmic antibiotic solution (Colbiocin®, SIFI S.p.A., containing chloramphenicol, rolitetracycline, colistin methanesulphonate) were instilled. The treatment was carried out 3 times a day (at 8.00 a.m., 12.00 a.m. and 6.00 p.m.) for one week after the administration of α-chymotrypsin. The rabbits were employed in the tests after one month from the induction of ocular hypertension by means of the enzyme.
The rabbits, divided also in this case in groups of 4 animals, were treated by instillation of 50 μl of the product under test in the right conjunctival fornix.
The intraocular pressure in the treated eye was measured, according to the same procedure as in the previous tests, 15 minutes before the instillation of the eye-drops and 30, 60, 90, 120, 180 and 240 minutes after. The values obtained were statistically analysed according to the criteria mentioned in the foregoing.
The experimental conditions were exactly the same as before.
[5] abbreviates: average ± S.D. of 4 rabbits, 30 min after instillation.
The mark [6] stands for this setting: average ± S.D. of 4 rabbits, 60 min after instillation.
The mark [7] stands for this setting: average ± S.D. of 4 rabbits, 90 min after instillation.
[8] abbreviates: average ± S.D. of 4 rabbits, 120 min after instillation.
Setting [9] is: average ± S.D. of 4 rabbits, 180 min after instillation.
[10] abbreviates: average ± S.D. of 4 rabbits, 240 min after instillation.
Setting [11] is: average ± S.D. of 4 rabbits, time 0 = 15 min before instillation (baseline).
[12] abbreviates: individual rabbit, right eye, 30 min after instillation.
Setting [13] is: individual rabbit, right eye, 60 min after instillation.
The mark [14] stands for this setting: individual rabbit, right eye, 90 min after instillation.
[15] abbreviates: individual rabbit, right eye, 120 min after instillation.
The mark [16] stands for this setting: individual rabbit, right eye, 180 min after instillation.
Setting [17] is: individual rabbit, right eye, 240 min after instillation.
Setting [18] is: individual rabbit, right eye, time 0 = 15 min before instillation (baseline).

Usually IC50 stands for the point on the concentration scale where inhibition reaches its midpoint.

Several values for one entry are separate records, joined by “and”; a condition that tells them apart may be missing. Equal values may be shown once.

T1 sequence (G1SD54 1-223): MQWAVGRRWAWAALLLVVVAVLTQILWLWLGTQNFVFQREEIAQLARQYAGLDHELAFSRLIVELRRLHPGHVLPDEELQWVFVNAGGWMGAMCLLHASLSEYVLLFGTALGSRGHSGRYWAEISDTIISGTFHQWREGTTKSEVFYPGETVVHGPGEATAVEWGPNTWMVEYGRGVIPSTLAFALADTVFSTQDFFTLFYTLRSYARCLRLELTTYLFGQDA

Take `CC(C)=CCN1CC[C@]2(C)c3cc(O)ccc3C[C@H]1[C@H]2C` [[^3H])(+)-pentazocine, [^3H](+)-pentazocine]: the “Binding to receptor sites of the iridociliary body region” value on σ-1 receptors [1] is “selectively binds to receptor sites”.
In turn, `COCCOC(=O)C1=C(C)NC(C)=C(C(=O)OC(C)C)C1c1cccc([N+](=O)[O-])c1` (stereo not drawn) [nimodipine] came in with an IC50 at σ-1 receptors [2] greater than 10 µM.
Take `CC(C)(C)NC[C@H](O)COc1nsnc1N1CCOCC1` [timolol]: the “Intraocular pressure (mmHg) at the time (min): 30, average ± S.D.” value in test [3] (setting [5]) came to 14.7 ± 0.5 mmHg; in test [4] (setting [5]), 41.7 ± 4.7 mmHg. For the same molecule, the “Intraocular pressure (mmHg) at the time (min): 60, average ± S.D.” value turned out to be 13.5 ± 0.6 mmHg in test [3] (setting [6]) and 39.7 ± 2.9 mmHg in test [4] (setting [6]). Moreover, the “Intraocular pressure (mmHg) at the time (min): 90, average ± S.D.” value in test [3] (setting [7]) is given as 14.5 ± 0.6 mmHg; in test [4] (setting [7]), 39.7 ± 2.6 mmHg. The entries for the “Intraocular pressure (mmHg) at the time (min): 120, average ± S.D.” value in test [3] (setting [8]) and in test [4] (setting [8]) were 15.5 ± 0.6 mmHg and 42.5 ± 3.5 mmHg, respectively. Further, the “Intraocular pressure (mmHg) at the time (min): 180, average ± S.D.” value in test [3] (setting [9]) was 16.0 ± 0.6 mmHg; in test [4] (setting [9]), 46.0 ± 4.9 mmHg. Moreover, the figures for the “Intraocular pressure (mmHg) at the time (min): 240, average ± S.D.” value in test [3] (setting [10]) and in test [4] (setting [10]) were 16.0 ± 0.8 mmHg and 48.2 ± 4.4 mmHg, respectively. The “Intraocular pressure (mmHg) at the time (min): 0, average ± S.D.” value was determined as 15.7 ± 0.5 mmHg in test [3] (setting [11]) and 49.0 ± 5.3 mmHg in test [4] (setting [11]). In addition, the “Intraocular pressure (mmHg) at the time (min): 30” value was 15 mmHg (3×) and 14 mmHg in test [3] (setting [12]); 43 mmHg and 45 mmHg and 39 mmHg and 40 mmHg in test [4] (setting [12]). Moreover, the “Intraocular pressure (mmHg) at the time (min): 60” value in test [3] (setting [13]) is 14 mmHg (2×) and 13 mmHg (2×); in test [4] (setting [13]), 42 mmHg (2×) and 39 mmHg and 36 mmHg. The “Intraocular pressure (mmHg) at the time (min): 90” value in test [3] (setting [14]) is 14 mmHg (2×) and 15 mmHg (2×); in test [4] (setting [14]), 42 mmHg (2×) and 38 mmHg and 37 mmHg. In addition, the “Intraocular pressure (mmHg) at the time (min): 120” value in test [3] (setting [15]) is 15 mmHg (2×) and 16 mmHg (2×); in test [4] (setting [15]), 46 mmHg and 45 mmHg and 39 mmHg and 40 mmHg. Moreover, the “Intraocular pressure (mmHg) at the time (min): 180” value in test [3] (setting [16]) was 16 mmHg (2×) and 17 mmHg and 15 mmHg; in test [4] (setting [16]) it was 52 mmHg and 48 mmHg and 42 mmHg (2×). Further, the “Intraocular pressure (mmHg) at the time (min): 240” value was 16 mmHg (2×) and 17 mmHg and 15 mmHg in test [3] (setting [17]); 53 mmHg and 51 mmHg and 45 mmHg and 44 mmHg in test [4] (setting [17]). The “Intraocular pressure (mmHg) at the time (min): 0” value is 16 mmHg (3×) and 15 mmHg in test [3] (setting [18]); 53 mmHg and 54 mmHg and 46 mmHg and 43 mmHg in test [4] (setting [18]).
